The text below walks through data of patent publication US11254654B2, “Heterochromatin gene repression inhibitors” (The University of North Carolina at Chapel Hill, priority 2017, dated 2022).

Each structure is given as a SMILES string. Structures can show the parent of a compound that is named as a salt.

For test [1], the target named is T1, GLP (Homo sapiens, UniProt Q9H9B1).
T1 sequence (Q9H9B1 1-1298): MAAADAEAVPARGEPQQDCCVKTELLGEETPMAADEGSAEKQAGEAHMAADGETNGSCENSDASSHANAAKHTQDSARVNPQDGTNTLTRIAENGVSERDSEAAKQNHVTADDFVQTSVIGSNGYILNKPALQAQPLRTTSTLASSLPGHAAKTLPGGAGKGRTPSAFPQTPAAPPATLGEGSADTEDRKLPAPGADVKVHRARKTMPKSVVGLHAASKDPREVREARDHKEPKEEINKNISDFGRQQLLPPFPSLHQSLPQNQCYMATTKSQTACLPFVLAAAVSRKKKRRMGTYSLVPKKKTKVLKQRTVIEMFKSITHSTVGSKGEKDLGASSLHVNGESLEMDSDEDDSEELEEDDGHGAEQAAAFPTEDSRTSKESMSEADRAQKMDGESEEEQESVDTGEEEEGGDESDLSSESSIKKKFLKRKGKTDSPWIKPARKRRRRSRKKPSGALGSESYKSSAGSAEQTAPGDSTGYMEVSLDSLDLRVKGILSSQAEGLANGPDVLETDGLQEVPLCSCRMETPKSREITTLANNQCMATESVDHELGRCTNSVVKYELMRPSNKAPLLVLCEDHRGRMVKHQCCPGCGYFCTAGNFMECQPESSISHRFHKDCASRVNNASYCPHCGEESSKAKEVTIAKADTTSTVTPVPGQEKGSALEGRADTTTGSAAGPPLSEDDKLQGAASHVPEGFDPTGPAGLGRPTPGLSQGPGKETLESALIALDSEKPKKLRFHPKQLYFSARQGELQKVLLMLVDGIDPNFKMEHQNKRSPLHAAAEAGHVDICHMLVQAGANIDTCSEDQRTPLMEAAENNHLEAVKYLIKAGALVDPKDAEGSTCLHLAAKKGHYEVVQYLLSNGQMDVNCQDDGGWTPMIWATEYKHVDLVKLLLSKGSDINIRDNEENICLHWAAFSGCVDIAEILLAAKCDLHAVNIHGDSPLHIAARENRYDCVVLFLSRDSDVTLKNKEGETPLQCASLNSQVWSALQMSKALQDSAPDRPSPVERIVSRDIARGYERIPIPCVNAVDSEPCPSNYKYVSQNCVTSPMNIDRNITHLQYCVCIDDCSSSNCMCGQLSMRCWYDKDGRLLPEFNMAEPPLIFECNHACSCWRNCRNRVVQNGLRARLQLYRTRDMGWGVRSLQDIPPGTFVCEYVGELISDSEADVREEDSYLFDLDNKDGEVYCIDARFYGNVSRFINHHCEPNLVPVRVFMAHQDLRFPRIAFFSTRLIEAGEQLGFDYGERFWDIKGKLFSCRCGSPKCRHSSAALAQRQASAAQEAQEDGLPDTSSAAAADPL
Nature of the test: In vitro activity against GLP. The format is biochemical. Particulars: data not shown.

Test [2] addresses T2, G9a (Homo sapiens, UniProt Q96KQ7).
T2 sequence (Q96KQ7 1-1210): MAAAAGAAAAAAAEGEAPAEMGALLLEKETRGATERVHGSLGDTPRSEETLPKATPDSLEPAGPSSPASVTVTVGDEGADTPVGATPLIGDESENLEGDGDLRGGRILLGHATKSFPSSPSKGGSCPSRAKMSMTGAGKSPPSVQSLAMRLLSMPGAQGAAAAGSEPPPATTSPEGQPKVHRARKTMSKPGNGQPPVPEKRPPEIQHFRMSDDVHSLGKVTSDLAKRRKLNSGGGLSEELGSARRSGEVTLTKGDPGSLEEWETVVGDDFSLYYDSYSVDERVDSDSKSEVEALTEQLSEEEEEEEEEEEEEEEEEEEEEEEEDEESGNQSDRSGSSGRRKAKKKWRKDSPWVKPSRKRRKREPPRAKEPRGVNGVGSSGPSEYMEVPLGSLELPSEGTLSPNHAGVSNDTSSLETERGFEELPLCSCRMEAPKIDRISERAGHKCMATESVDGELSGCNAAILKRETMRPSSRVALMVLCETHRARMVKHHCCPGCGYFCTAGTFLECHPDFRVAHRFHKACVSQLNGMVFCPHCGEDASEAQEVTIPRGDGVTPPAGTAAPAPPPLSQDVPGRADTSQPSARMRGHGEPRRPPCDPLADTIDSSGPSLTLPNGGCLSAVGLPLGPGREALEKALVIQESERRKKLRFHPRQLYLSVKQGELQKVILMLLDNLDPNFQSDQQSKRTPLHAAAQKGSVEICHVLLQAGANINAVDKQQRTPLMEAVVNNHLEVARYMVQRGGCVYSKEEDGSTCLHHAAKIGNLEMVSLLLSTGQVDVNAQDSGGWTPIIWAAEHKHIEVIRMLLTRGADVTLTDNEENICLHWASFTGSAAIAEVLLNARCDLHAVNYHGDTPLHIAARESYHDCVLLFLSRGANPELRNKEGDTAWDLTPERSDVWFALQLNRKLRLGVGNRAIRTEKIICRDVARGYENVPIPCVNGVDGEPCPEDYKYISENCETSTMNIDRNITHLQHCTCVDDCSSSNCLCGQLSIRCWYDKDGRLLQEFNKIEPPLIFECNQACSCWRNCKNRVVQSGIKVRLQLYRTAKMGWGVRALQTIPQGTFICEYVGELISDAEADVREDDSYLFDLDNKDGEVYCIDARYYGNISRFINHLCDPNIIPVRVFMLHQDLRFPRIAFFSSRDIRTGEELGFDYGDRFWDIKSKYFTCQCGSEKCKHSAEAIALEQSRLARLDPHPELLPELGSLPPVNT
Description: In vitro activity against G9a. The format is biochemical. The conditions noted are these: data not shown.

With `COc1cc2nc(N3CCCC3)nc(N[C@H]3CCCNC3)c2cc1OC` [compound 1, (S)-6,7-Dimethoxy-N-(Piperidin-3-yl)-2-(Pyrrolidin-1-yl)Quinazolin-4-Amine Trifluoroacetic Acid Salt], the “Activity against GLP in vitro” value in test [1] is reported as “no detectable activity”. The “Activity against G9a in vitro” value in test [2] was “no detectable activity”.
